Laboratory results reported in patent US11191850B2, “Molecular probes for detection and imaging of pancreatic cancer” (Portland State University, priority 2016, dated 2021).
Entries after “also recorded” stand apart in the source; their conditions may differ. Where two headings read alike, the source gives them in different places.

Tests used:
[1] = test system: Capan-1 cells; assay: In vitro time-dependent fluorophore uptake; assay type: cell-based, human; details: Capan-1, 10 μM
Procedure: (§1) Cell culture. The human PDAC cell line Capan-1 was obtained from Dr. Rosalie Sears' laboratory and maintained in RPMI medium (Gibco) in a humid atmosphere at 37° C. with 5% CO2. All media were supplemented with 10% (v/v) fetal bovine serum (FBS), and 1% (v/v) penicillin/streptomycin. The cell viability was determined by Cell Titer-Blue® assay (Promega Corporation). Monolayers of 10^4 Capan-1 cells were seeded in triplicate in 96 well plates and incubated with decreasing concentration from 100 μM of each compound in growth media containing 10% FBS. After 24 h incubation time, 20 μL of CellTiter-Blue® reagent was added into each well, and culture cells were incubated for additional 2 h. Fluorescence intensity in each well was recorded at 560/590 nm in a SpectraMax® M5 Microplate Reader (Molecular Devices, LLC). The half maximal inhibitory concentration (IC50) of these three compounds were determined from interpolating values in the graph (% cell viability vs. fluorophore concentration). For comparison of cellular uptake rate in Capan-1 cells, absorbance of media was measured as background, and absorbance of supernatant was obtained to determine the cellular uptake by using absorbance of 10 μM fluorophore in cell free media as standard reference.
In vitro time-dependent fluorophore uptake was also investigated in Capan-1 cells. […]

[2] = UV-Vis absorption and fluorescence spectroscopy; assay type: physicochemical; parameters: Brightness: unit not given here; details: for pH and solvent sensitivity of UV and fluorescence spectra: 10-15 μM, aqueous 10% DMSO with HCl, NaOH or pH 7.4 buffer, various solvents; for Extinction coefficient / λmax abs: pH 7.4 phosphate buffer, 10% DMSO; for Quantum yield / λmax em / Brightness / Stokes shift: pH 7.4 buffer
Excerpt: UV-Vis absorption and fluorescence spectroscopy. UV-Vis spectra were collected with a Cary 50 UV-Vis spectrophotometer at room temperature, using a 1-cm quartz cuvette. Fluorescence spectra were collected on a Cary Eclipse fluorescence spectrophotometer (Agilent Technologies). All absorbance spectra were reference corrected. Fluorescence spectra were corrected for the wavelength dependent response of the R928 photomultiplier tube using a manufacturer generated correction file. Quantum yields are reported as the average of multiple measurements using multiple references. Excitation emission matrices (EEMs) were collected over various spectral regions, using 5-nm step sizes for emission and 10-nm step sizes for excitation. The band pass for excitation and emission was 5 to 10 nm.
Probes 1-13 were screened for pH and solvent sensitivity. Solvent sensitivity or dependence is at least partially attributable to differences in the equilibria between tautomeric forms of the compounds in the various solvents evaluated. The fluorophore concentrations ranged from 10-15 μM. Aqueous solutions contained 10% DMSO and 12.5 mM HCl, 12.5 mM NaOH, or pH 7.4 phosphate buffer.

[3] = test system: Capan-1 cells; assay: Subcellular localization by live cell imaging with organelle trackers; assay type: cell-based, human; details: Capan-1, 0.5 μM, 1 h incubation
Procedure: In vitro live cell imaging. Monolayers of 10^4 Capan-1 cells were seeded in triplicate in 8 well plates and incubated for 24 h in growth media containing 10% FBS and allowed to attach. For subcellular colocalization experiments, media was extracted and cells were washed with PBS, and phenol red-free growth medium was added to each well. Organelle trackers were added to each well, and incubated with the compound (final concentration 0.5 μM) of interest for 1 h. Cells were then washed with PBS and then fixed with 2% paraformaldehyde (PFA). Fluorescence microscopy was carried out using a Zeiss inverted microscope with an Axioscan fluorescence camera for imaging. Final concentration of organelle trackers used in this experiments, DAPI (4,6-diamidino-2-phenylindole) 0.5 μM, MitoTracker® Green (benzoxazolium 2-[3-[5,6-dichloro-1,3-bis[[4-(chloromethyl)-phenyl]methyl]-1,3-dihydro-2H-benzimidazol-2-ylidene]-1-propenyl]-3-methyl-chloride 201860-17-5v, ThermoFisher Scientific) 0.5 μM, and ER-Tracker™ Green (BODIPY® FL dye and glibenclamide; ThermoFisher Scientific) 1 μM.
The subcellular localization of 2, 12 and 13 was investigated in Capan-1 cells after 1 h incubation time. […] FIGS. 6A, 7A, and 8A show the red fluorescence of the three compounds, respectively, as well as blue fluorescence with DAPI (4,6-diamidino-2-phenylindole) FIGS. 6C, 7C, 8C) and green fluorescence with organelle-specific fluorescent probes—ER-Tracker™ Green (BODIPY® FL dye and glibenclamide; ThermoFisher Scientific) (FIGS. 6E, 7E, 8E) and MitoTracker® Green (benzoxazolium 2-[3-[5,6-dichloro-1,3-bis[[4-(chloromethyl)-phenyl]methyl]-1,3-dihydro-2H-benzimidazol-2-ylidene]-1-propenyl]-3-methyl-chloride201860-17-5v; ThermoFisher Scientific) (FIGS. 6G, 7G, 8G). Also shown are composite overlays of (i) phase contrast+compound fluorescence (FIGS. 6B, 7B, 8B), (ii) DAPI+compound fluorescence (FIGS. 6D, 7D, 8D), (iii) DAPI+ER-Tracker™ Green+compound fluorescence (FIGS. 6F, 7F, 8F), and (iv) DAPI+MitoTracker® Green+compound fluorescence (FIGS. 6H, 7H, 8H).

[4] = test system: healthy CD-1 mice; assay: In vivo biodistribution imaging after systemic administration; details: for clearance route and rate: 100 nmol i.v. (MB 120 nmol); for organ accumulation (in vivo biodistribution): 100 nmol i.v., 4 h distribution phase; for pancreas penetration / specificity: normal pancreas, systemic administration
Procedure: (§2) Animals. Approval for the use of all animals in this study was obtained from the Institutional Animal Care and Use Committee (IACUC) at Oregon Health and Science University (OHSU). Male CD-1 mice weighing 22-24 g were purchased from Charles River Laboratories (Wilmington, MA). […] All animals were placed on 5V75 chlorophyll free diet from TestDiet (St. Louis, Mo.) 1 week prior to any imaging studies. Prior to surgery, mice were anaesthetized with 100 mg/kg ketamine and 10 mg/kg xylazine (Patterson Veterinary, Devens, Mass.). The peritoneal cavity was surgically exposed by removal of overlaying skin and muscle tissue to image fluorophore biodistribution following intravenous injection.
(§3) Intraoperative fluorescence imaging system. In vivo murine biodistribution images and macroscopic images of resected tissues were acquired using a custom-built small animal imaging system capable of real time color and fluorescence imaging. The imaging system consists of a QImaging EXi Blue monochrome camera (Surrey, British Columbia, Calif.) for fluorescence detection with a removable Bayer filter for collecting co-registered color and fluorescence images. A PhotoFluor II light source (89 North, Burlington, Vt.) was focused onto the surgical field through a liquid light guide and used unfiltered for white light illumination. […] All filters were obtained from Chroma technology (Bellows Falls, Vt.). Camera exposure times ranged from 50 to 200 ms for fluorescence image collection.
(§4) Systemic administration of fluorescent compounds. […] Fluorophores were diluted in PBS. For comparison with previous studies, 120 nmol Methylene Blue was injected systemically. Mice were administered blank PBS for control images (n=3 mice per group, 5 groups).
(§5) In vivo biodistribution imaging. […] The peritoneal cavity was exposed and images were collected so that the bladder, adipose tissue, intestine, kidney, liver, muscle, pancreas, spleen, and stomach were visible within the field of view. For initial biodistribution studies images were collected immediately after injection and at 5, 15, 30, 60, 120, and 240 min following injection. […] Vehicle injected control animals were imaged on the same time course as fluorophore injected animals for initial testing or immediately following injection only for studies involving MB or PDAC tumor bearing mice to assess tissue autofluorescence for comparison to injected animals.
(§6) Fluorophore biodistribution kinetics were measured using region of interest analysis on images collected of the peritoneal cavity. Mean fluorescence intensities in each organ or tissue type were measured from images collected at each time point. All intensities were normalized to the muscle intensity at that time point by dividing by the measured muscle intensity. Using the normalized fluorescence intensities for each organ or tissue type, mean intensities were calculated for each group.
(§7) Upon completion of initial biodistribution studies, animals were euthanized and their organs were resected.

[5] = test system: PDAC tumor tissue; assay: Intraoperative fluorescence imaging and ex vivo microscopy in PDAC tumor bearing mice; parameters: species or system mouse; details: 100 nmol systemic, n=5 PDAC mice, monitored over 1.5 h
Procedure: Systemic administration of fluorescent compounds. […] Fluorophores were diluted in PBS.
In vivo biodistribution imaging.
Ex vivo fluorescence microscopy, pathology, and immunofluorescence staining. Resected pancreas tissue from compound 12 in vivo biodistribution studies with PDAC tumor bearing mice was fixed with 2% PFA for 12 h, flash frozen in optimal cutting temperature (OCT) compound with liquid nitrogen, and stored at −80° C. Cryosections were cut at 10 μm onto Superfrost Plus slides (Fisherbrand, Fisher Scientific). Slides were mounted with Fluoromount-G (Southern Biotech, Birmingham, Ala.) and coverslipped. […] Images were acquired on an Axio Observer inverted fluorescence microscope (Zeiss, Thornwood, N.Y.) at 10, 20, or 40× magnification. […] Color images were collected using an Axiocam 105 camera (Zeiss) and fluorescence images were collected using an Axiocam 506 camera (Zeiss) where a 605±35 nm or 525±25 nm bandpass emission filter was used for compound 12 or Atto 488 fluorescence image collection, respectively.
Compound 12 was systemically administered to n=5 genetically modified PDAC mice. Pancreas specific fluorescence was monitored over 1.5 h. […] FIGS. 12B and 12C show real-time intraoperative fluorescence imaging of compound 12 in the PDAC mice. […]

[6] = test system: Capan-1 cells; assay: Cell viability by CellTiter-Blue assay; assay type: cell-based, human; details: Capan-1, 24 h incubation, read-out: IC50 (cytotoxicity, cell viability)
Procedure: as §1
In vitro cell viability was assessed for compounds 2, 12 and 13 in a representative PDAC cell line, Capan-1. […]

[7] = test system: pancreas tissue; assay: Ex vivo staining of pancreas tissue from healthy and PDAC mice; parameters: species or system mouse
Excerpt: Thus 12 enabled ex vivo staining to distinguish the features of healthy and PDAC tissue.

[8] = test system: healthy CD-1 mice; details: mouse, in vivo, iv
Procedure: as §2, §3, §4, §5, §6, §7

Row | Compound | fluorophore uptake within 30 min of application (ranking) [1] | pH and solvent sensitivity of UV and fluorescence spectra [2] | Extinction coefficient ([2]; methyl ether derivatives) | site of intracellular localization [3] | clearance route and rate [4] | organ accumulation (in vivo biodistribution) [4] | pancreas penetration / specificity [4] | IC50 [6] [µM] | also measured
1 | COC(=O)c1ccccc1-c1c2ccc(=O)cc-2oc2c1ccc1cccc(OC)c12 [Compound 2] | the lowest | not affected by either solvent changes or by solution pH values above 2 | 15,610 M^−1 · cm^−1 | within vesicular structures | significant renal clearance; also recorded: faster renal clearance than compounds 12 and 13 | preferentially accumulated in the pancreas, intestine and bladder | improved pancreas specificity |  | 
2 | COC(=O)c1ccccc1C1=c2cc3c4c(c2Oc2c1ccc1cccc(OC)c21)CCC[N+]=4CCC3 [Compound 12, 15-methoxy-9-(2-(methoxycarbonyl)phenyl)-1,2,3,5,6,7-hexahydrobenzo[7,8]chromeno[2,3-f]pyrido[3,2,1-ij]quinolin-4-ium chloride] |  | insensitive to variations in pH or solvent | 17764 M⁻¹ cm⁻¹ | extensive accumulation in the mitochondria | both renal and hepatic clearance; also recorded: cleared more slowly than compound 2; also recorded: greater hepatic excretion rate | accumulated in the kidney, pancreas, and intestine | improved pancreas specificity | 17.8 | accumulation in PDAC tumor tissue vs surrounding tissue [5]: significantly higher than in the surrounding healthy tissue; also recorded: significantly higher than in the surrounding tissues and specific for the malignant cells; Quantum yield ([2]; excited at 480 nm): 11.38%; λmax em ([2]; excited at 480 nm): 622 nm; Brightness ([2]; methyl ether derivatives): 2022; Stokes shift ([2]; methyl ether derivatives): 40 nm; λmax abs ([2]; methyl ether derivatives): 582 nm; ex vivo staining localization, cancerous (PDAC) tissue ([7]; PDAC mouse pancreas): localized in the PDAC-associated ductal epithelial cells; ex vivo staining localization, healthy mouse pancreas tissue ([7]; healthy mouse pancreas): uptake of 12 in its abundant acinar cell population; fluorescence SBR in the pancreas compared to surrounding organs ([4]; 4-h time point): highest and most persistent fluorescence SBR in the pancreas; uptake in normal pancreas tissue relative to MB ([4]; 12 100 nmol vs MB 120 nmol, i.v.): 4 fold
3 | COC(=O)c1ccccc1C1=c2cc3c4c(c2Oc2c1ccc1cccc(N)c21)CCC[N+]=4CCC3 [Compound 13, 15-amino-9-(2-(methoxycarbonyl)phenyl)-1,2,3,5,6,7-hexahydrobenzo[7,8]chromeno[2,3-f]pyrido[3,2,1-ij]quinolin-4-ium chloride] | greatest fluorophore uptake | not pH dependent, but were modestly solvent sensitive |  | extensive accumulation in the mitochondria | cleared more slowly than compound 2 | accumulated largely in the kidneys | diminished pancreas accumulation | 26.1 | Quantum yield ([2]; excited at 630 nm): 0.66%; λmax em ([2]; excited at 630 nm): 740 nm; Brightness ([2]; seminaphthorhodamines): 85; Stokes shift ([2]; seminaphthorhodamines): 139 nm; Extinction coefficient ([2]; seminaphthorhodamines): 12808 M⁻¹ cm⁻¹; λmax abs ([2]; seminaphthorhodamines): 601 nm
4 | CN(C)c1ccc2nc3ccc(=[N+](C)C)cc-3sc2c1 [MB, methylene blue, reference compound] |  |  |  |  |  |  | poor penetration into normal pancreas tissue; also recorded: diminished pancreas accumulation |  | clearance route and rate [8]: preferentially and rapidly cleared through the renal system
